Consider two compounds from EP1508334B1, “Water soluble extract from plant of solanum genus and the preparation process thereof, and pharmaceutical composition containing the water soluble extract” (G & E Herbal Biotechnology Co., Ltd., priority 2003, dated 2005).

The test system of one series is H441. Briefly: MTS tetrazolium salt cytotoxicity assay. Format: cell-based, human. The note with it: different test concentrations / various dosages, 12 hrs, Fig. 8 and Fig. 12. The source says:
In order to determine whether the water-soluble extract obtained from the plant of Solanum genus according to this invention has anti-cancer activity, the principal cancer cells of Hep3B, H441, and MCF-7 were used as analytic targets, in which Hep3B and H441 were purchased from American Type Culture Collection (ATCC, P.O. Box 1549, Manassas, VA 20108 USA), and MCF-7 was purchased from Food Industry Research and Development Institute (331 Shih-Pin Road, Hsinchu, 300 Taiwan R.O.C.).
Hep3B was incubated in Dulbecco's Modified Eagle's medium (DMEM), while H441 and MCF-7 were incubated in RPMI-1640, both of the media containing 10% fetal bovine serum and 40 mg/L gentamycin.
The cytotoxicity of cancer cells was determined using tetrazolium salt assay (MTS, Mosmann. T., 1983, Immmunol. Meth., 65, 55-63), which was conducted for the colorimetric determination of cell viability according to the manufacturer's procedures (CellTiter 96™ AQ, Promega, Madison, USA).
Cells were seeded at 1x10^4 cells/well in a 96-well plate and incubated in 5% CO2 incubator at 37°C for at least 16 hrs. […] Upon completion of the reaction, absorbency in each well was determined at 490 nm by using ELISA reader 312e, Bio-TEK. Each value was expressed as means ± SD from three experiments.
Cytotoxicity was determined by MTS tetrazolium salt assay disclosed in Pharmacological assay 1. […]

A short description of series [1]: Dissolution in water (applicant's observations). It counts as physicochemical. The conditions noted are these: for direct dissolution in water: compounds purified by HPLC from the water-soluble extract; for concentration at which precipitated: in water after being first dissolved in DMSO; for dissolution in water: without DMSO pre-treatment.
A further series deals with Trypanosoma cruzi. The note with it: cited from earlier work.
The next series deals with Tribolium castaneum. The note with it: cited from earlier work.
The subject of another series is Manduca sexta. The note with it: cited from earlier work.
The next series has as its system Phoma medicaginis. The conditions noted are these: cited from earlier work.
A further series deals with Rhizoctomia solani. The conditions noted are these: cited from earlier work.
The subject of a further series is Lymnaea cubensis. The conditions noted are these: cited from earlier work.
A further series concerns Biomphalaria glabrata. The note with it: cited from earlier work.
Another series has as its system JTC-26. The note with it: cited from earlier work.
The test system of series [2] is human PLC/PRF/5 hepatoma cells. The conditions noted are these: cited from earlier work.
In the next series the test system is Hep3B. The note with it: cited from earlier work.
Series [3] has as its system normal skin fibroblast cells. The conditions noted are these: cited from earlier work.
The next series has as its system TNF receptor I. The conditions noted are these: cited from earlier work.

`C[C@@H]1CC[C@@]2(NC1)O[C@H]1C[C@H]3[C@@H]4CC=C5C[C@@H](O[C@@H]6O[C@H](CO)[C@@H](O[C@@H]7O[C@@H](C)[C@H](O)[C@@H](O)[C@H]7O)[C@H](O)[C@H]6O[C@@H]6O[C@@H](C)[C@H](O)[C@@H](O)[C@H]6O)CC[C@]5(C)[C@H]4CC[C@]3(C)[C@H]1[C@@H]2C` [solamargine]: in the series with H441, the “inhibiting the growth of H441” value is reported as “effectively inhibited”. In series [1], the “direct dissolution in water” value was “directly dissolved in water”, the “concentration at which precipitated” value is listed as “more than 5 mg/ml” and the dissolution in water result is given as “could not dissolve in water”. Besides, the “inhibiting growth of Trypanosoma cruzi” value in the series on Trypanosoma cruzi is “capable of inhibiting growth”. Further, the “inhibiting growth of Tribolium castaneum” value in the series with Tribolium castaneum was “capable of inhibiting growth”. Moreover, the “inhibiting growth of Manduca sexta” value in the series with Manduca sexta is reported as “capable of inhibiting growth”. Besides, the “inhibiting growth of Phoma medicaginis” value with Phoma medicaginis is reported as “capable of inhibiting growth”. Also, the “inhibiting growth of Rhizoctomia solani” value with Rhizoctomia solani is listed as “capable of inhibiting growth”. Also, in the series with Lymnaea cubensis, the “inhibiting growth of Lymnaea cubensis” value is “capable of inhibiting growth”. Besides, the “inhibiting growth of Biomphalaria glabrata” value in the series with Biomphalaria glabrata is given as “capable of inhibiting growth”. For the same compound, in the series with JTC-26, the “growth of JTC-26” value is reported as “inhibits the growth”. The “growth of human PLC/PRF/5 hepatoma cells” value in [2] is on record as “inhibits the growth”. Moreover, the “death of cells by apoptosis pathway” value with Hep3B is “increases death of cells”. Also, the “death of cells by apoptosis pathway” value in series [3] is on record as “increases death of cells”. Further, the “gene expression of TNF receptor I” value in the series on TNF receptor I was “up-regulated”.

On to `C[C@@H]1CC[C@@]2(NC1)O[C@H]1C[C@H]3[C@@H]4CC=C5C[C@@H](O[C@@H]6O[C@H](CO)[C@H](O)[C@H](O[C@@H]7O[C@H](CO)[C@@H](O)[C@H](O)[C@H]7O)[C@H]6O[C@@H]6O[C@@H](C)[C@H](O)[C@@H](O)[C@H]6O)CC[C@]5(C)[C@H]4CC[C@]3(C)[C@H]1[C@@H]2C` [solasonine], for which the “inhibiting the growth of H441” value with H441 is “effectively inhibited”. For the same compound, in [1], the “direct dissolution in water” value is “directly dissolved in water”, the “concentration at which precipitated” value is “more than 5 mg/ml” and the dissolution in water result is on record as “could not dissolve in water”.
